Results: US4920016A, “Liposomes with enhanced circulation time” (Linear Technology, Inc., priority 1987, dated 1990)

Assay: Uptake of doxorubicin into J6456 mouse tumors
Details: in vivo, J6456 mice, IV, fluorometric (Table 14), read-out: Percent of Injected Dose (DXR)/q Tumor (SD)
Protocol: Sized MLVs having one of the three lipid compositions shown in Table 14 below were prepared as above. Doxorubicin was included in the hydration buffer, at a concentration of about 5 mg/ml, and free drug was removed from the sized liposomes by gel filtration.
Mice innoculated with J6456 lymphoma cells were injected IV with the MLVs (1 umole phospholipid/animal) or with an equivalent amount of free doxorubicin. Tissue distribution of the drug, 24 hours post administration, was determined fluorometrically, with the results shown in Tables 13 below.

In the case of COc1cccc2c1C(=O)c1c(O)c3c(c(O)c1C2=O)C[C@@](O)(C(=O)CO)C[C@@H]3O[C@H]1C[C@H](N)[C@H](O)[C@H](C)O1 [FREE DXR, doxorubicin], the tissue uptake at 24 h was 0.4 %ID/g.
